Test results reported in ChEMBL document CHEMBL1150878, “Novel cytotoxic diterpenes, excavatolides A-E, isolated from the Formosan gorgonian Briareum excavatum” (1998).
≈ marks a conversion by molar mass, not a printed value.

How the values were obtained:
Type in all cases: functional
Details in all cases: read-out: ED50 (the source's name)
[1] = tested on: P388; experiment: Cytotoxicity against mouse P388 cells by MTT assay
[2] = tested on: KB; experiment: Cytotoxicity against human KB cells by MTT assay
[3] = tested on: A549; experiment: Cytotoxicity against human A549 cells by MTT assay
[4] = tested on: HT-29; experiment: Cytotoxicity against human HT-29 cells by MTT assay

Row | SMILES | EC50 [1] [µg/mL] | EC50 [2] [µg/mL] | EC50 [3] [µg/mL] | EC50 [4] [µg/mL]
1 | CC(=O)O[C@H]1C[C@H](OC(C)=O)[C@@]2(C)[C@H]([C@H]1C)[C@]1(O)[C@@]2(OC(C)=O)CC/C(C)=C\[C@@H]2OC(=O)[C@@]3(C)O[C@@]213 | 5.8 (≈ 11.5 µM) | > 50 | 37.2 (≈ 73.4 µM) | 4.4 (≈ 8.69 µM)
2 | C=C1[C@H]2O[C@H]2[C@@]2(O)[C@@]3(C)[C@H]4O[C@H]4[C@H](OC(C)=O)[C@H](C)[C@@H]3[C@@]2(OC(C)=O)[C@]2(O)[C@@H](C)C(=O)O[C@H]2[C@H]1Cl [BRIANOLIDE] | > 50 | > 50 | > 50 | > 50
3 | C=C1[C@@H]2C[C@@]3(OC(C)=O)[C@@]4(C)[C@@H](OC(C)=O)CC=C(C)[C@@H]4[C@@]3(O)[C@]3(O2)[C@@H](C)C(=O)O[C@H]3[C@H]1Cl [EXCAVATOLIDE A] | > 50 | 2.5 (≈ 5.2 µM) | 21.9 (≈ 45.5 µM) | > 50
4 | CCCC(=O)O[C@H]1C/C(C)=C\[C@@H]2OC(=O)[C@@]3(C)O[C@]23[C@]2(OC(C)=O)[C@H]3[C@@H](C)[C@@H](O)C[C@H](OC(C)=O)[C@]3(C)[C@]12OC(C)=O [EXCAVATOLIDE B] | > 50 | > 50 | > 50 | > 50
5 | CC(=O)O[C@H]1C[C@H](O)[C@H](C)[C@H]2[C@@]1(C)[C@]1(OC(C)=O)[C@@H](OC(C)=O)C/C(C)=C\[C@@H]3OC(=O)[C@@]4(C)O[C@]34[C@]21OC(C)=O [EXCAVATOLIDE C] | 0.3 (≈ 0.531 µM) | 1.9 (≈ 3.37 µM) | 1.9 (≈ 3.37 µM) | 1.9 (≈ 3.37 µM)
6 | CC(=O)O[C@H]1C[C@H](O)[C@H](C)[C@H]2[C@@]1(C)[C@]1(O)[C@@H](OC(C)=O)C/C(C)=C\[C@@H]3OC(=O)[C@@]4(C)O[C@]34[C@]21OC(C)=O [EXCAVATOLIDE D] | 1.8 (≈ 3.44 µM) | 4.2 (≈ 8.04 µM) | > 50 | 1.3 (≈ 2.49 µM)
7 | CC(=O)O[C@H]1C[C@H](O)[C@H](C)[C@H]2[C@@]1(C)[C@]1(OC(C)=O)CC/C(C)=C\[C@@H]3OC(=O)[C@@]4(C)O[C@]34[C@]21O [EXCAVATOLIDE E] | 1.6 (≈ 3.44 µM) | 0.8 (≈ 1.72 µM) | 1.2 (≈ 2.58 µM) | 1.6 (≈ 3.44 µM)
